Assay results published in patent US20110251238A1, “PPAR AGONIST COMPOSITIONS AND METHODS OF USE” (BIOPHARMED, priority 2008, published 2011).
Converted amounts (≈) assume the structure as drawn.

Experiments:
[1] = test system: MCF-7 (epithelial breast cancer); experiment: Growth inhibition, MTT colorimetric assay, MCF7; type: cell-based; settings: Homo sapiens, MCF7, 72 h; carcinoma; 3 days with drug; means of six values; unit inferred; read-out: IC50 MCF7
Procedure: (§1) A549 (human lung adenocarcinoma epithelial), BxPC3 (pancreatic cancer), LoVo (colon cancer), MCF-7 (epithelial breast cancer), PC3 (human prostate cancer), Hs683 (human glioma), T98G (glioblastoma), U373 (human glioblastoma-astrocytoma), U138 MG (human glioma), epithelial-like), SKMEL28 (human melanoma), B16-F10 (mouse melanoma) and RhTP (rhabdomyosarcoma) cell lines were cultured in presence of the drugs for 3 days. The cytotoxic activity is expressed as (IC50). Inhibition of cell proliferation measured by the MTT colorimetric assay. The values reported in Table 4 are means of six distinct values.

[2] = test system: KaKa; experiment: Growth inhibition, MTT colorimetric assay, KaKa; type: cell-based; settings: 72 h; 3 days with drug; means of six values; unit inferred; read-out: IC50 KaKa
Summary of the method: (§2)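 Reported IC50 values average six determinations, with standard error under 5% relative to the mean. Inhibition was scored by MTT after a 3-day culture with the drugs.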

[3] = test system: B16-F10 (mouse melanoma); experiment: Growth inhibition, MTT colorimetric assay, B16F10; type: cell-based; settings: Mus musculus, B16-F10, 72 h; melanoma; 3 days with drug; means of six values; unit inferred; read-out: IC50 B16F10
Summary of the method: (§3)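 Compounds passing an activity cut-off on KB3 cells were carried forward. Cultures grew in presence of drug for 3 days, then proliferation was measured by MTT and expressed as IC50.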

[4] = test system: RhTP (rhabdomyosarcoma); experiment: Growth inhibition, MTT colorimetric assay, RhTp; type: cell-based; settings: 72 h; 3 days with drug; means of six values; unit inferred; read-out: IC50 RhTp
Summary of the method: as §2

[5] = test system: LoVo (colon cancer); experiment: Growth inhibition, MTT colorimetric assay, LoVo; type: cell-based; settings: Homo sapiens, LoVo, 72 h; carcinoma; 3 days with drug; means of six values; unit inferred; read-out: IC50 LoVo
Procedure: as §1

[6] = test system: Hs683 (human glioma); experiment: Growth inhibition, MTT colorimetric assay, HS683; type: cell-based; settings: Homo sapiens, Hs 683, 72 h; glioma; 3 days with drug; means of six values; unit inferred; read-out: IC50 HS683
Procedure: as §1

[7] = test system: bloodstream forms of T. brucei and T. congolense; experiment: Trypanocidal activity in vitro, Alamar Blue assay; type: cell-based, Trypanosoma brucei and T. congolense; settings: 48 h total incubation
Summary of the method: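 Bloodstream-form trypanosomes exposed to compounds in H2O for 24 h, then Alamar Blue added for a further 24 h (48 h total). Absorbance read at 550 nm with 630 nm reference; duplicate wells, three repeats. HL-60 cytotoxicity run alongside: 43 h plus 5 h dye.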

[8] = test system: GL19; experiment: Growth inhibition, MTT colorimetric assay, GL19; type: cell-based; settings: GL19, 72 h; 3 days with drug; means of six values; unit inferred; read-out: IC50 GL19
Summary of the method: as §2

[9] = test system: A549 (human lung adenocarcinoma epithelial); experiment: Growth inhibition, MTT colorimetric assay, A549; type: cell-based; settings: Homo sapiens, A549, 72 h; carcinoma; 3 days with drug; means of six values; unit inferred; read-out: IC50 A549
Procedure: as §1

[10] = test system: U138 MG (human glioma); experiment: Growth inhibition, MTT colorimetric assay, U138; type: cell-based; settings: Homo sapiens, U138-MG, 72 h; glioma; 3 days with drug; means of six values; unit inferred; read-out: IC50 U138
Summary of the method: as §3

[11] = test system: caspases 9; experiment: Caspases 9 activation in HL60 cells (LEHD reagent); type: cell-based, human; settings: 48 hours, 1 μM, 0.1 μM and 0.01 μM
Excerpt: (§4) 7223, using standard commercially available diagnostic kits (Calbiochem, USA). Assay reagents used were DEVD for caspases 3/7, […] for caspases 8, and LEHD for caspases 9. Moreover, colchicine was used as reference compound that induces this activity of caspases.

[12] = test system: U373 (human glioblastoma-astrocytoma); experiment: Growth inhibition, MTT colorimetric assay, U373; type: cell-based; settings: Homo sapiens, U373 MG, 72 h; glioma; 3 days with drug; means of six values; unit inferred; read-out: IC50 U373
Summary of the method: as §3

[13] = test system: PC3 (human prostate cancer); experiment: Growth inhibition, MTT colorimetric assay, PC3; type: cell-based; settings: Homo sapiens, 72 h; carcinoma; 3 days with drug; means of six values; unit inferred; read-out: IC50 PC3
Procedure: as §1, with “Compounds that met the criteria for activity on KB3 cells were further tested for drug growth inhibitory activity in 5 carcinoma, 6 glioma and 3 melanoma cell lines, shown in Table 4. A549” for “A549”, “values. The standard errors are <5% as compared to the mean values.” for “values.”

[14] = test system: caspases 8; experiment: Caspases 8 activation in HL60 cells (IEDT reagent); type: cell-based, human; settings: 48 hours, 1 μM, 0.1 μM and 0.01 μM
Excerpt: as §4

[15] = test system: SKMEL28 (human melanoma); experiment: Growth inhibition, MTT colorimetric assay, SKMEL-28; type: cell-based; settings: Homo sapiens, SK-MEL-28, 72 h; melanoma; 3 days with drug; means of six values; unit inferred; read-out: IC50 SKMEL-28
Summary of the method: as §2

SMILES: Oc1ccc(CN(Cc2ccc(C(F)(F)F)cc2)Cc2ccc(O)c3ncccc23)c2cccnc12 [BPM18,708, 5,5′-(4-(trifluoromethyl)benzylazanediyl)bis(methylene)diquinolin-8-ol]
- IC50 [1]: 0.034 µM
- IC50 [2]: 1.58 µM
- IC50 [3]: 0.092 µM
- IC50 [4]: 0.081 µM
- IC50 [5]: 0.01 µM
- IC50 [6]: 0.01 µM
- GI50 ([7]; 50% growth inhibition, read-out: GI50): 0.31 ± 0.01 µM
- MIC ([7]; lowest concentration at which all cells were killed, read-out: MIC): 1 µM (≈ 0.489 µg/mL)
- IC50 [8]: 1.24 µM
- IC50 [9]: 0.008 µM
- IC50 [10]: 0.049 µM
- activation of caspases 9 [11]: no effect
- IC50 [12]: 0.044 µM
- IC50 [13]: 0.066 µM
- activation of caspases 8 [14]: no effect
- IC50 [15]: > 10 µM
